Data as given in EP4722212A1, “NOVEL COMPOUND FOR INHIBITING PROTEIN KINASES AND PHARMACEUTICAL COMPOSITION COMPRISING SAME” (Magicbullettherapeutics Co., Ltd., priority 2023, dated 2024).
Where two headings read alike, the source gives them in different places.

What was measured:
Test in all cases: Kinase panel
Format in all cases: biochemical
DYRK2 = DYRK2 (Homo sapiens, UniProt Q92630); conditions: DYRK2, 1 µM; read-out: residual enzyme activity
How it was run: (§1)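 In this biochemical panel, each kinase was exposed to test compound at 1 µM and its leftover catalytic activity expressed as residual activity. Selection required at least 60% inhibition.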

SGK2 = SGK2 (Homo sapiens, UniProt Q9HBY8); conditions: SGK2, 1 µM; read-out: residual enzyme activity
How it was run: as §1

IRR/INSRR = IRR/INSRR (Homo sapiens, UniProt P14616); conditions: read-out: residual enzyme activity
How it was run: as §1

WEE1 = WEE1 (Homo sapiens, UniProt P30291); conditions: WEE1, 1 µM; read-out: residual enzyme activity
How it was run: as §1

LOK/STK10 = LOK/STK10 (Homo sapiens, UniProt O94804); conditions: LOK/STK10, 1 µM; read-out: residual enzyme activity
Sequence of LOK/STK10 (O94804 whole entry): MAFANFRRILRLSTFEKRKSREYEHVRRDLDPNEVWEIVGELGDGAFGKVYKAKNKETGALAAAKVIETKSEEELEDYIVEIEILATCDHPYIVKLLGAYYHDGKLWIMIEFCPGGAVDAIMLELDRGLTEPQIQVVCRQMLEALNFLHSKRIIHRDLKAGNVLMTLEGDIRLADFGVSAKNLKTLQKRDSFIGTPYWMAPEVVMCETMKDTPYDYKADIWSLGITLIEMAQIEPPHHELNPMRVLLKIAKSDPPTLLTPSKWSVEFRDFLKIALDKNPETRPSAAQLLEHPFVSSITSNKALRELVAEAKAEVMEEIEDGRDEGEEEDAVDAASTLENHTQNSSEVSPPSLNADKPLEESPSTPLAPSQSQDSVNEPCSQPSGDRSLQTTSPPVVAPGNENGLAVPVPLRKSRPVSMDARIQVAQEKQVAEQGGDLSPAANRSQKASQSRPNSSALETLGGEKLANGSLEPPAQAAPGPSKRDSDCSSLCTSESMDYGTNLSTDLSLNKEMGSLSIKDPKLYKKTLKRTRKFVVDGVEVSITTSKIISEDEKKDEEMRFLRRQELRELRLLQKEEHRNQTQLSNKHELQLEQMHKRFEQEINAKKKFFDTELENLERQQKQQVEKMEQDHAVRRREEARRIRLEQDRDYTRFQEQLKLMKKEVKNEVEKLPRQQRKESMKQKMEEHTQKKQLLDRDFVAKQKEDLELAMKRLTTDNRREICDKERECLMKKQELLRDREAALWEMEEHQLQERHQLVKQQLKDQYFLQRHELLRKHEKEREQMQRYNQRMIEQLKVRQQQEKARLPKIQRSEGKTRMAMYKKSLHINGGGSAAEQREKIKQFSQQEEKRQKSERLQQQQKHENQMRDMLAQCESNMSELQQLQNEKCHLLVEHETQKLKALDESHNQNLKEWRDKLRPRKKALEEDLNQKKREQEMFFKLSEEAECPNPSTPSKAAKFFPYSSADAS
How it was run: as §1

ROS/ROS1 = ROS/ROS1 (Homo sapiens, UniProt P08922); conditions: ROS/ROS1, 1 µM; read-out: residual enzyme activity
How it was run: as §1

PAK1 = PAK1 (Homo sapiens, UniProt Q13153); conditions: PAK1, 1 µM; read-out: residual enzyme activity
How it was run: as §1

AKT3 = AKT3 (Homo sapiens, UniProt Q9Y243); conditions: AKT3, 1 µM; read-out: residual enzyme activity
How it was run: as §1

ERBB4/HER4 = ERBB4/HER4 (Homo sapiens, UniProt Q15303); conditions: ERBB4/HER4, 1 µM; read-out: residual enzyme activity
How it was run: as §1

MEKK2 = MEKK2 (Homo sapiens, UniProt Q9Y2U5); conditions: MEKK2, 1 µM; read-out: residual enzyme activity
Sequence of MEKK2 (Q9Y2U5 whole entry, species assumed): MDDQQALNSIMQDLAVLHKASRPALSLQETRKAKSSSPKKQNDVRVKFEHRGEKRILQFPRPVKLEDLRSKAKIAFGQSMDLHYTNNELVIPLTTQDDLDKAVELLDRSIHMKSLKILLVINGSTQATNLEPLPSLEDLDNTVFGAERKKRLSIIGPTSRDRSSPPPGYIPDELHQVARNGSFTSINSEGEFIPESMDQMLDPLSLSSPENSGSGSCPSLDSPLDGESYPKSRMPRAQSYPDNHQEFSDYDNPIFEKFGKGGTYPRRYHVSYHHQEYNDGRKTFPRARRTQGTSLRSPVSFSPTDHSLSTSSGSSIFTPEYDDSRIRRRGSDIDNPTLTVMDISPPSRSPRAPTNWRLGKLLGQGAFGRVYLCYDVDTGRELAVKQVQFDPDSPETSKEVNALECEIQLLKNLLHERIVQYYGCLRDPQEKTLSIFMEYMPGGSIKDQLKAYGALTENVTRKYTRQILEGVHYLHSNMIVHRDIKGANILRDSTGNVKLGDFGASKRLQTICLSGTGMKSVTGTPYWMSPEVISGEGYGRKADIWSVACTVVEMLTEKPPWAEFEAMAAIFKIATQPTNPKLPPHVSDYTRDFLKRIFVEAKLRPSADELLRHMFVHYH
How it was run: as §1

P38B/MAPK11 = P38B/MAPK11 (Homo sapiens, UniProt Q15759); conditions: read-out: residual enzyme activity
How it was run: as §1

SRPK1 = SRPK1 (Homo sapiens, UniProt Q96SB4); conditions: SRPK1, 1 µM; read-out: residual enzyme activity
How it was run: as §1

TTBK1 = TTBK1 (Homo sapiens, UniProt Q5TCY1); conditions: TTBK1, 1 µM; read-out: residual enzyme activity
Sequence of TTBK1 (Q5TCY1 whole entry, species assumed): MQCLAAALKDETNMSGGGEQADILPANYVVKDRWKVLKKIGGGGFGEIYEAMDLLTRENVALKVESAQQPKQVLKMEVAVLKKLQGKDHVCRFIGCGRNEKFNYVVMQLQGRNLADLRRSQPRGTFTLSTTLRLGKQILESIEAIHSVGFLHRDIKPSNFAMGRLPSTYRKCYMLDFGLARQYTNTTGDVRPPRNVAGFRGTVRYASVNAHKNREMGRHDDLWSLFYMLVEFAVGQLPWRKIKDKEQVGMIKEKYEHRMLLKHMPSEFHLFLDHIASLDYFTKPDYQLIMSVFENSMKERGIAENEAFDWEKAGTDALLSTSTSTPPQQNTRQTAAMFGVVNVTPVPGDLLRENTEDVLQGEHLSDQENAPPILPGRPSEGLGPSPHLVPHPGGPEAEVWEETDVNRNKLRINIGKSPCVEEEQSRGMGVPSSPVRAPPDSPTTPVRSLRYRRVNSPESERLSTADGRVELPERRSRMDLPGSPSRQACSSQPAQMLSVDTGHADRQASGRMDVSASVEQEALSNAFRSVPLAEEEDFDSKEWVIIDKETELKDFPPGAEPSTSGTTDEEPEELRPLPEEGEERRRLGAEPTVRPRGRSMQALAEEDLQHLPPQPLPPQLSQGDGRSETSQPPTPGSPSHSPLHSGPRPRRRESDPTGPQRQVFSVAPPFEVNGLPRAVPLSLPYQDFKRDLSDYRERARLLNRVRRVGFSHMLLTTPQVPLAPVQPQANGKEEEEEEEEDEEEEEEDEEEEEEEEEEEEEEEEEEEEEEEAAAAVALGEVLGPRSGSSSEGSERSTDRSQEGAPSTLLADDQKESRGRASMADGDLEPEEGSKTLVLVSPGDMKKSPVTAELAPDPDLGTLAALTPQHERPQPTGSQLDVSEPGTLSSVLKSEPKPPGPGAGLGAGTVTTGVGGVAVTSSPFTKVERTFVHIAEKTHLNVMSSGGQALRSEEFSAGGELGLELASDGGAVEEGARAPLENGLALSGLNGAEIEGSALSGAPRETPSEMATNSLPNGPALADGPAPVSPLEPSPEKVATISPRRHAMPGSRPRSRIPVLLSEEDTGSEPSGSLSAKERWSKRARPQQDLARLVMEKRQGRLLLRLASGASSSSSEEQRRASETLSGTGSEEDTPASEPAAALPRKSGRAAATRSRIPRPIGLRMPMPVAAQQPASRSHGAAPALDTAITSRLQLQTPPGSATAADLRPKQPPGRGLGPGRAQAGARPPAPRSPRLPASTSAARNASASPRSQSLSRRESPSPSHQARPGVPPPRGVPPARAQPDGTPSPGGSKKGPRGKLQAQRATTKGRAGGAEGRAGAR
How it was run: as §1

MARK4 = MARK4 (Homo sapiens, UniProt Q96L34); conditions: MARK4, 1 µM; read-out: residual enzyme activity
How it was run: as §1

AURORA C = AURORA C (Homo sapiens, UniProt Q9UQB9); conditions: read-out: residual enzyme activity
How it was run: as §1

PKACG = PKACG (Homo sapiens, UniProt P22612); conditions: read-out: residual enzyme activity
Sequence of PKACG (P22612 whole entry): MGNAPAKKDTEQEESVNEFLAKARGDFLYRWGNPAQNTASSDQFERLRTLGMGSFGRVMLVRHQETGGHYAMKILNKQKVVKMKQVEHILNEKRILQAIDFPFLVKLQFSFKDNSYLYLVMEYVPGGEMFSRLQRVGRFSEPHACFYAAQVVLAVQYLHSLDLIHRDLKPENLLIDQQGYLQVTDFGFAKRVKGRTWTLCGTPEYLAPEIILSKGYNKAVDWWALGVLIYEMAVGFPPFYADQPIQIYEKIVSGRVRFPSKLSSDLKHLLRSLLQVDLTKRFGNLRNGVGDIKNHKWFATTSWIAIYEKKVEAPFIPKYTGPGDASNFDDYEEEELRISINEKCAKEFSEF
How it was run: as §1

PHKG1 = PHKG1 (Homo sapiens, UniProt Q16816); conditions: read-out: residual enzyme activity
How it was run: as §1

FAK/PTK2 = FAK/PTK2 (Homo sapiens, UniProt Q05397); conditions: FAK/PTK2, 1 µM; read-out: residual enzyme activity
How it was run: as §1

FRK/PTKS = FRK/PTKS (Homo sapiens, UniProt P42685); conditions: read-out: residual enzyme activity
How it was run: as §1

ALK = ALK (Homo sapiens, UniProt Q9UM73); conditions: read-out: residual enzyme activity
How it was run: as §1

PKCD = PKCD (Homo sapiens, UniProt Q05655); conditions: read-out: residual enzyme activity
How it was run: as §1

TLK1 = TLK1 (Homo sapiens, UniProt Q9UKI8); conditions: TLK1, 1 µM; read-out: residual enzyme activity
How it was run: as §1

YSK4/MAP3K19 = YSK4/MAP3K19 (Homo sapiens, UniProt Q56UN5); conditions: YSK4/MAP3K19, 1 µM; read-out: residual enzyme activity
How it was run: as §1

CAMK2B = CAMK2B (Homo sapiens, UniProt Q13554); conditions: read-out: residual enzyme activity
How it was run: as §1

GRK6 = GRK6 (Homo sapiens, UniProt P43250); conditions: GRK6, 1 µM; read-out: residual enzyme activity
How it was run: as §1

MYLK4 = MYLK4 (Homo sapiens, UniProt Q86YV6); conditions: MYLK4, 1 µM; read-out: residual enzyme activity
How it was run: as §1

SNARK/NUAK2 = SNARK/NUAK2 (Homo sapiens, UniProt Q9H093); conditions: SNARK/NUAK2, 1 µM; read-out: residual enzyme activity
Sequence of SNARK/NUAK2 (Q9H093 whole entry): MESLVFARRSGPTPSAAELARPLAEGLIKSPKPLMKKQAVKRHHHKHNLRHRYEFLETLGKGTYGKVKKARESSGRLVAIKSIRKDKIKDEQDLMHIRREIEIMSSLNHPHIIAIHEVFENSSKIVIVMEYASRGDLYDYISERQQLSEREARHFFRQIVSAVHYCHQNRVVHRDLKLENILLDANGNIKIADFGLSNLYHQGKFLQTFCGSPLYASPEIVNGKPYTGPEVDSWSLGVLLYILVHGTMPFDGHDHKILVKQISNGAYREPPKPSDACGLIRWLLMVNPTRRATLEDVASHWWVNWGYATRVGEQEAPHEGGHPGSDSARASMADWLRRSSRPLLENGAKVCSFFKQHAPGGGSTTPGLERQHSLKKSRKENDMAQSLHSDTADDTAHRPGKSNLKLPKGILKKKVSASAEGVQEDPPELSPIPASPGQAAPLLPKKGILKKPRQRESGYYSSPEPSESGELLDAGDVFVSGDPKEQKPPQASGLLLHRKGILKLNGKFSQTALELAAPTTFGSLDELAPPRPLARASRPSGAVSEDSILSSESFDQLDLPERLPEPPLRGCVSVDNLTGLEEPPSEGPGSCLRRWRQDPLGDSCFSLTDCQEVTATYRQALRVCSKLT
How it was run: as §1

MNK2 = MNK2 (Homo sapiens, UniProt Q9HBH9); conditions: MNK2, 1 µM; read-out: residual enzyme activity
How it was run: as §1

PKCZETA = PKCZETA (Homo sapiens, UniProt Q05513); conditions: read-out: residual enzyme activity
How it was run: as §1

ERK7/MAPK15 = ERK7/MAPK15 (Homo sapiens, UniProt Q8TD08); conditions: ERK7/MAPK15, 1 µM; read-out: residual enzyme activity
How it was run: as §1

C-SRC = C-SRC (Homo sapiens, UniProt P12931); conditions: read-out: residual enzyme activity
Sequence of C-SRC (P12931 whole entry, species assumed): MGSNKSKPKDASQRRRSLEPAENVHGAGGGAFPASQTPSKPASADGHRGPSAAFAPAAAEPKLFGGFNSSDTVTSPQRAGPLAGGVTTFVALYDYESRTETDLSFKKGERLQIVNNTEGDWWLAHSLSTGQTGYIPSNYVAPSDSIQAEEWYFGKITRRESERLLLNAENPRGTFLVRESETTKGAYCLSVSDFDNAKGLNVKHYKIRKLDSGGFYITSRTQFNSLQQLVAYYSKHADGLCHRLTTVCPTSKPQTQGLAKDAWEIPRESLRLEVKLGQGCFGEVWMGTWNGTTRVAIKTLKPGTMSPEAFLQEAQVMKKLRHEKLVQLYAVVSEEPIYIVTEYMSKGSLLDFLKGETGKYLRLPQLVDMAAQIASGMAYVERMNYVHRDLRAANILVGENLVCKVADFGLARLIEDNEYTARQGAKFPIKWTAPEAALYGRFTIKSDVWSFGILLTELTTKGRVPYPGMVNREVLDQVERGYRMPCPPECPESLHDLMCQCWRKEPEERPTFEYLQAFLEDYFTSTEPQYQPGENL
How it was run: as §1

SGK1 = SGK1 (Homo sapiens, UniProt O00141); conditions: SGK1, 1 µM; read-out: residual enzyme activity
How it was run: as §1

RSK3 = RSK3 (Homo sapiens, UniProt Q15349); conditions: RSK3, 1 µM; read-out: residual enzyme activity
How it was run: as §1

Sequence of DYRK2 (Q92630 whole entry, species assumed): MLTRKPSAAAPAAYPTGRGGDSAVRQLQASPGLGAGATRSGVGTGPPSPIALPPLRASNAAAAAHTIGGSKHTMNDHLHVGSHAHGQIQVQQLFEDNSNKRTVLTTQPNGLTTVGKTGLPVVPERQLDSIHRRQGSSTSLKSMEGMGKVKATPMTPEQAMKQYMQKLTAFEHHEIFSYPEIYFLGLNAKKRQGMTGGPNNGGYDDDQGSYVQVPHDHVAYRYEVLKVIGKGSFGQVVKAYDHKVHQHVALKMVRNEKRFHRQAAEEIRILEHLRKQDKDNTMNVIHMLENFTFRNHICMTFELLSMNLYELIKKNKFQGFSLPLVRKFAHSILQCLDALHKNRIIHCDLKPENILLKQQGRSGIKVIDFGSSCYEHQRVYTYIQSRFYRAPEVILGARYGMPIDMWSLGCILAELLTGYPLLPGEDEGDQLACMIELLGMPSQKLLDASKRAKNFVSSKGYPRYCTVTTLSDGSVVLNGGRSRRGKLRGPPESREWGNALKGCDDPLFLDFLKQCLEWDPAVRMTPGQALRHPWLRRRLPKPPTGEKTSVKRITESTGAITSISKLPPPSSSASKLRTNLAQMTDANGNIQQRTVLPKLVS

Compound	remaining activity at 1 µM (DYRK2) [%]	remaining activity at 1 µM (SGK2) [%]	remaining activity at 1 µM (IRR/INSRR) [%]	remaining activity at 1 µM (WEE1) [%]	remaining activity at 1 µM (LOK/STK10) [%]	remaining activity at 1 µM (ROS/ROS1) [%]	remaining activity at 1 µM (PAK1) [%]	remaining activity at 1 µM (AKT3) [%]	remaining activity at 1 µM (ERBB4/HER4) [%]	remaining activity at 1 µM (MEKK2) [%]	remaining activity at 1 µM (SRPK1) [%]	remaining activity at 1 µM (TTBK1) [%]	remaining activity at 1 µM (MARK4) [%]	remaining activity at 1 µM (AURORA C) [%]	remaining activity at 1 µM (PKACG) [%]	remaining activity at 1 µM (FAK/PTK2) [%]	remaining activity at 1 µM (FRK/PTKS) [%]	remaining activity at 1 µM (ALK) [%]	remaining activity at 1 µM (PKCD) [%]	remaining activity at 1 µM (TLK1) [%]	further results
Cc1cn(-c2cc(C(=O)Nc3ccc(C)c(N4Cc5cnc(NC6CC6)nc5C5(CC5)C4=O)c3)cc(C(F)(F)F)c2)cn1 [Compound 8, N-(3-(2'-(cyclopropylamino)-7'-oxo-5'H-spiro[cyclopropane-1,8'-pyrido[4,3-d]pyrimidine]-6'(7'H)-yl)-4-methylphenyl)-3-(4-methyl-1H-imidazol-1-yl)-5-(trifluoromethyl)benzamide]	> 40	> 40	> 40	> 40	≤ 40	≤ 40	> 40	> 40	≤ 40	≤ 40	> 40	> 40	> 40	> 40	≤ 40	≤ 40	≤ 40	> 40	> 40	> 40	remaining activity at 1 µM (P38B/MAPK11; P38B/MAPK11, 1 µM): ≤ 40%; remaining activity at 1 µM (PHKG1; PHKG1, 1 µM): > 40%; remaining activity at 1 µM (YSK4/MAP3K19): ≤ 40%; remaining activity at 1 µM (CAMK2B; CAMK2B): > 40%; remaining activity at 1 µM (GRK6): > 40%; remaining activity at 1 µM (MYLK4): > 40%; remaining activity at 1 µM (SNARK/NUAK2): > 40%; remaining activity at 1 µM (MNK2): > 40%; remaining activity at 1 µM (PKCZETA): > 40%; remaining activity at 1 µM (ERK7/MAPK15): > 40%; remaining activity at 1 µM (C-SRC; C-SRC): ≤ 40%; remaining activity at 1 µM (SGK1): > 40%; remaining activity at 1 µM (RSK3): > 40%
Cc1ccc(Nc2ncc3c(n2)C2(CC2)C(=O)N(c2cc(NC(=O)c4cccc(C(F)(F)F)c4)ccc2C)C3)cn1 [Compound 51, N-(4-methyl-3-(2'-((6-methylpyridin-3-yl)amino)-7'-oxo-5'H-spiro[cyclopropane-1,8'-pyrido[4,3-d]pyrimidine]-6'(7'H)-yl)phenyl)-3-(trifluoromethyl)benzamide]	> 40	> 40	> 40	> 40	≤ 40	≤ 40	> 40	> 40	≤ 40	≤ 40	> 40	> 40	> 40	> 40	≤ 40	≤ 40	≤ 40	> 40	> 40	> 40	remaining activity at 1 µM (P38B/MAPK11; P38b/MAPK11, 1 µM): ≤ 40%; remaining activity at 1 µM (PHKG1; PHKgl, 1 µM): > 40%; remaining activity at 1 µM (YSK4/MAP3K19): ≤ 40%; remaining activity at 1 µM (CAMK2B; CAMK2b): > 40%; remaining activity at 1 µM (GRK6): > 40%; remaining activity at 1 µM (MYLK4): > 40%; remaining activity at 1 µM (SNARK/NUAK2): > 40%; remaining activity at 1 µM (MNK2): > 40%; remaining activity at 1 µM (PKCZETA): > 40%; remaining activity at 1 µM (ERK7/MAPK15): > 40%; remaining activity at 1 µM (C-SRC; c-Src): ≤ 40%; remaining activity at 1 µM (SGK1): > 40%; remaining activity at 1 µM (RSK3): > 40%
